# Paper PMC8911046, “Identification of Kukoamine A, Zeaxanthin, and Clexane as New Furin Inhibitors” (International Journal of Molecular Sciences, 2022)
# Where “and” joins values, the source holds several entries; their conditions need not be identical. Equal entries are not always repeated. Residues, ends and D or L forms follow the SMILES beside them. *: point of attachment. Decanoyl = CCCCCCCCCC(=O)*; CH2Cl = ClC*
# Key:
# [1] = biological target: T1, furin from the U-251 MG secretome (Homo sapiens, UniProt P09958); assay: Furin inhibition assay in coadjuvants with CMK; assay type: biochemical; details: CMK alone, read-out: IC50 for CMK alone, physiological furin
# T1 construct: physiological furin secreted from U-251 MG cells; endogenous in cells; host or cells: U-251 MG human glioblastoma cells; conditioned medium (secretome) concentrated 10x
# T1 sequence (P09958 108-715 limits assumed): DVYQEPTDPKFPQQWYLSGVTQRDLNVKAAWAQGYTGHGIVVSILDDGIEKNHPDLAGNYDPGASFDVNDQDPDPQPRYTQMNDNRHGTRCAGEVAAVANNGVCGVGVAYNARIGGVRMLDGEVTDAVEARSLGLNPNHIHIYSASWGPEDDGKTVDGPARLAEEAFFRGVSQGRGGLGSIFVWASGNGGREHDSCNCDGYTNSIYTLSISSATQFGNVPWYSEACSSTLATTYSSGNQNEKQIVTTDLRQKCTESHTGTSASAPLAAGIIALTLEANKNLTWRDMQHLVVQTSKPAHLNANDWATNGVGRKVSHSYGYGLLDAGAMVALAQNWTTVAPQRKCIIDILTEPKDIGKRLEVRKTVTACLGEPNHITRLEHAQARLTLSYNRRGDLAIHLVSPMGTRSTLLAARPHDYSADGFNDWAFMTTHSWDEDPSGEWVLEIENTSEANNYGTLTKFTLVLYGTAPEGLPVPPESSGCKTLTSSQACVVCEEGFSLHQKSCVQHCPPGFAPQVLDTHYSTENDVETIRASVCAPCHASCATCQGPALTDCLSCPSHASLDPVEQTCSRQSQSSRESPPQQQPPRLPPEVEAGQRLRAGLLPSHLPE
# Description: (§1) The IC50 was calculated only for those compounds that inhibited recombinant and physiological furin. For each compound concentration, furin activity’s maximum velocity (mRFU/min) was recorded. Then, by using GraphPad software (v. 8), the correlation between the decimal logarithm (compound concentration) and furin activity’s maximum velocity was calculated by nonlinear regression (curve fit) for XY analyses. From this statistical method, the IC50 was calculated with a 95% confidence interval (CI).
# Since furin inhibition by CMK had been tested only in physiological conditions, adjuvant inhibition assays were performed with furin from the U-251 MG secretome. Inhibition was assessed by using different concentrations of CMK (Cat.No. B5437; APExBIO) and the IC50 concentrations of selected virtual screening compounds or Clexane. In a 96-well black plate, various CMK (0–50 µM) concentrations were incubated with the IC50 concentrations of the rest of the compounds and with 10× U-251 MG secretome as described above. After 10 min incubation at room temperature, 50 µM furin specific fluorogenic substrate was added and the plate was read in a Multiskan Go plate reader at 380 and 460 nm for emission and excitation wavelengths, respectively, at 37 °C for 30 min.
# human recombinant furin = biological target: T2, human recombinant furin (Homo sapiens, UniProt P09958); assay: Fluorogenic furin inhibition assay, recombinant furin; assay type: biochemical; details: 3.6 nM human recombinant furin, 50 µM fluorogenic substrate, pH 9
# T2 construct: purchased R&D Systems 1503-SE-010
# T2 sequence (P09958 108-794): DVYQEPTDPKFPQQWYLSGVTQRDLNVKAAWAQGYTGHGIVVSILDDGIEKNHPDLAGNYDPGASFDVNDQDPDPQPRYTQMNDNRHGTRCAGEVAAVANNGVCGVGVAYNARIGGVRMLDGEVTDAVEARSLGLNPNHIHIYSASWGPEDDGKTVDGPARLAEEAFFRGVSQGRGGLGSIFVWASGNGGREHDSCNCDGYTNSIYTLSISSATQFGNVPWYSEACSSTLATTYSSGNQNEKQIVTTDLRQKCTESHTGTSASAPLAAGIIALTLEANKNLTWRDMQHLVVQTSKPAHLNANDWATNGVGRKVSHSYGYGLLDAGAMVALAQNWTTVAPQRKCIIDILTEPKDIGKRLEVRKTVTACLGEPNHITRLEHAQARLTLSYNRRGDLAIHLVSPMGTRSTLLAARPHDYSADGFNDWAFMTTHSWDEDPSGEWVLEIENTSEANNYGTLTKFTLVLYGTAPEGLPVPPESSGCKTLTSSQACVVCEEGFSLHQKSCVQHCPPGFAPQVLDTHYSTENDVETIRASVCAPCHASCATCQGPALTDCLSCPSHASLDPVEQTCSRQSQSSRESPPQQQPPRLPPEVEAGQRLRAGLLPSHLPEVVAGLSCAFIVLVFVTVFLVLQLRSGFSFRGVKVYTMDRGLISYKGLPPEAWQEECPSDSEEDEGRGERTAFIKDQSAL
# Description: Clexane (LMWH, enoxaparin sodium, Clexane, Sanofi Aventis S.A., Barcelona, Spain) and each candidate compound selected by virtual screening were assayed as inhibitors of human recombinant furin (1503-SE-010; Lot#INK2320031; R&D Systems) and physiological furin secreted from U-251 MG cells. For both types of furin, the fluorogenic specific substrate (mentioned above) was used. […] Compounds were reconstituted in their appropriate solvents (distilled water, ethanol, PBS, etc.), according to the supplier’s instructions. In a 96-well black plate, U-251 MG secretome concentrated 10× or 3.6 nM human recombinant furin were incubated with different compound concentrations for 10 min at room temperature, and then, 50 µM furin specific fluorogenic substrate was added to every well, except one blank. Fluorescence was recorded in the Multiskan Go plate reader at 380 and 460 nm for emission and excitation wavelengths, respectively, at 37 °C for 30 min.
# as §1, with “From this statistical method, the IC50 was calculated with a 95% confidence interval (CI).” left out
# 293T HEK cell line = assay: Cell viability by 7-AAD flow cytometry; assay type: cell-based; details: for Alive (%) / Dead (%): 293T HEK; for percentage of live cells: half of the IC50 for physiological furin, no compound 94.25% ± 3.18%
# Description: New furin inhibitors identified by virtual screening were tested in cell viability assays. The 293T HEK cell line (human embryonic kidney cell line purchased from American Type Culture Collection) was used as healthy cell model. They were cultured in DMEM containing 4,5 g/L glucose, supplemented with 10% fetal bovine serum, 1% GlutaMax, and 0,1% gentamicin. They were maintained in Corning® T-75 flasks (catalog #430641; ThermoFisher Scientific, Waltham, MA, USA) at 37 °C and 5% carbon dioxide. At 100% cellular confluence, cells were subcultured in 12-well plates (flat bottom, sterile, NUNC brand, Biolab, Madrid, Spain) at 100,000 cells/mL for 24 h. Then, different concentrations (double, half, and full IC50 concentrations for physiological furin) of furin inhibitors were added to cells for 24 h, and cells were collected afterward. The experiment was run in duplicates. Then, the cell pellet was resuspended in running buffer (autoMACS ® Running Buffer–MACS Separation Buffer; order no.:130-091-221; Miltenyi Biotec, Madrid, Spain) and 7-AAD (Cat: 51-68981E; BD Biosciences, Madrid, Spain). Finally, this solution was evaluated in a flow cytometer (BD Accuri™ C6 Plus Flow Cytometer; BD Biosciences, Madrid, Spain) to calculate mortality rates. A blank solution with cell pellet resuspended in running buffer was used to discard cell autofluorescence. The results were analyzed in FlowJo software (v. 10).
# [2] = design: method as in PMID 27241194, PMID 28254666; details: rats or mice, doses between 5 and 20 mg/kg; cited from earlier work
# [3] = 2xIC50, single replicates of duplicate
# [4] = IC50, single replicates of duplicate
# [5] = IC50/2, single replicates of duplicate
# [6] = 293T cells, double IC50 concentration, 24 h
Compound,IC50 [1],IC50 (human recombinant furin),Alive (%) (293T HEK cell line; [3]),Dead (%) (293T HEK cell line; [3]),Alive (%) (293T HEK cell line; [4]),Dead (%) (293T HEK cell line; [4]),Alive (%) (293T HEK cell line; [5]),Dead (%) (293T HEK cell line; [5]),effect on cell viability (293T HEK cell line; [6]),"effect on cell viability (293T HEK cell line; 293T cells, full IC50 concentration, 24 h)","percentage of live cells (293T HEK cell line; 293T cells, 24 h)",adverse effects [2],"reduction of cell viability (293T HEK cell line; 293T cells, IC50 concentration, 24 h)"
"CCCCCCCCCC(=O)N[C@@H](CCCNC(=N)N)C(=O)N[C@H](C(=O)N[C@@H](CCCCN)C(=O)N[C@@H](CCCNC(=N)N)C(=O)CCl)C(C)C [CMK, Decanoyl-Arg-Val-Lys-Arg-chloromethylketone] (Decanoyl-RVKR-CH2Cl)",4.2 µM,,,,,,,,,,,,
O=C(CCc1ccc(O)c(O)c1)NCCCNCCCCNCCCNC(=O)CCc1ccc(O)c(O)c1 [Kukoamine A],,1070 µM,6.25% and 5.88%,94.1% and 93.8%,8.33% and 0%,91.7% and 100%,89.8% and 85.3%,10.2% and 14.7%,significantly reduced,significantly reduced,87.55% ± 1.48%,no significant reported adverse effects,
CC1=C(/C=C/C(C)=C/C=C/C(C)=C/C=C/C=C(C)/C=C/C=C(C)/C=C/C2=C(C)C[C@@H](O)CC2(C)C)C(C)(C)C[C@H](O)C1 [Zeaxanthin],,90.5 µM,1.10% and 15.7%,84.3% and 98.9%,32.8% and 33.9%,67.2% and 66.1%,78.2% and 84.0%,21.8% and 16.0%,nearly total death,,81.1% ± 4.1%,,61%
